Data from patent US5128344A, “Sampangine and derivatives useful as an antifungal agent” (University of Mississippi, priority 1990, dated 1992).
In brackets after ≈: the same amount, converted by molar mass. Entries after “also recorded” stand apart in the source; their conditions may differ.

Columns and labels:
Candida albicans [1] = details: J. Natural Products 1987, Hufford et al.; cited from earlier work
Candida albicans [2] = assay: MIC, twofold serial broth dilution assay, Candida albicans; format: cell-based, Candida albicans NIH B311; details: 24 h, 37°
Description: (§1) Candida albicans NIH B311 used to induce experimental disseminated candidiasis was used for the initial qualitative evaluation of anticandidal activity. The organism was grown in Sabouraud-dextrose broth (SDB) for 24 hours at 37°, at which time the cells were harvested by centrifugation at (4°, 2000 rpm, 3 min.). After centrifugation, the cells were washed and suspended in sterile 0.9% saline to give a final concentration of 10^6 colony forming units (CFU) per ml (adjusted using a hemocytometer). Inocula of Cryptococcus neoformans and Aspergillus fumigatus were prepared by suspension of the surface growth of stock agar slants in sterile H2 O. Culture plates (15×100 mm) for the qualitative assay were prepared from 25 ml of Sabouraud-dextrose agar for Candida albicans, and Mycophil™ agar for Cryptococcus neoformans and Aspergillus fumigatus. Using sterile cotton swabs, the plates were streaked with the suspension of appropriate test organism. Cylindrical plugs were removed from the agar plates by means of sterile cork borer to produce wells with a diameter of approximately 11 mm. To the well was added 100 μl of solution or suspension of an extract, fraction, or pure compound. Crude extracts and fractions were tested at a concentration of 20 mg/ml, whereas pure compounds were tested at 1 mg/ml. When solvents other than water, ethanol, methanol, dimethylsulfoxide (DMSO), dimethylformamide (DMF), or acetone were required to dissolve extracts or compounds, solvent blanks were included. Antifungal activity was recorded as the width (in mm) of the zone of inhibition, measured from the edge of the agar well to the edge of the zone, following incubation of the plates for 24 hours (37° for Candida albicans, 30° for Aspergillus fumigatus and 26° for Cryptococcus neoformans). The antifungal agents amphotericin B and ketoconazole were included as positive controls in each assay.
(§2) The method used to determine the minimum inhibitory concentration (MIC) was the twofold serial broth dilution assay in one or more of the following broth media: yeast nitrogen broth, Mycophil™ broth and Saboraud-dextrose broth (SDB). The inoculum for the MIC determination was prepared as described above for the qualitative evaluation. Using a calibrated sterile wire loop, each tube was inoculated with 10 μl of the suspension. The MIC value was taken as the lowest concentration of compound that inhibited the growth of the test organisms after an appropriate incubation period (37° for 24 hours for Candida albicans; 30° for 48 hours for Aspergillus fumigatus; 26° for 48 hours for Cryptococcus neoformans). The antifungal agent amphotericin B was included as positive control in each assay.

Cryptococcus neoformans = assay: MIC, twofold serial broth dilution assay, Cryptococcus neoformans; format: cell-based, Cryptococcus neoformans ATCC 32264; details: 48 h, Cn, 26°
Description: (§3) The generic name for the compound is 3-Methoxysampangine. The antifungal activity of the compound was determined by in vitro evaluation against Candida albicans NIH B311, Cryptococcus neoformans ATCC 32264, and Aspergillus fumigatus ATCC 26934 using the known agar-well diffusion assay techniques with the following modifications.
as §1, §2

Aspergillus fumigatus = assay: MIC, twofold serial broth dilution assay, Aspergillus fumigatus; format: cell-based, Aspergillus fumigatus ATCC 26934; details: Af, 30°, 48 hours
Description: as §3, §1, §2

[3] = system: Candida albicans, Cryptococcus neoformans and Aspergillus fumigatus; assay: in vitro antifungal activity, overall statement in words; format: cell-based; details: against both yeasts and the filamentous fungus
Description: as §3, §1
The method used to determine the minimum inhibitory concentration (MIC) was the twofold serial broth dilution assay in one or more of the following broth media: yeast nitrogen broth, Mycophil™ broth and Saboraud-dextrose broth (SDB). The inoculum for the MIC determination was prepared as described above for the qualitative evaluation. Using a calibrated sterile wire loop, each tube was inoculated with 10 μl of the suspension. […]

[4] = Candida albicans, Ca B311, SDB (Sabouraud dextrose broth)
[5] = Cryptococcus neoformans, SDB (Sabouraud dextrose broth)
[6] = Ca B311, YNB (yeast nitrogen base broth)
[7] = Candida albicans, Ca B311, MYCO (Mycophil broth)
[8] = YNB (yeast nitrogen base broth)
[9] = Cryptococcus neoformans, MYCO (Mycophil broth)

SMILES	anticandidal properties (in words) (Candida albicans [1])	MIC (Candida albicans [2]; [4])	MIC (Cryptococcus neoformans; [5])	MIC (Aspergillus fumigatus; SDB (Sabouraud dextrose broth))	antifungal activity (in words) [3]	MIC (Candida albicans [2]; [6])	MIC (Candida albicans [2]; [7])	MIC (Cryptococcus neoformans; [8])	MIC (Cryptococcus neoformans; [9])	MIC (Candida albicans [2]; Ca B311, YNB (yeast nitrogen base broth) (original))	MIC (Cryptococcus neoformans; YNB (yeast nitrogen base broth) (original))	MIC (Aspergillus fumigatus; MYCO (Mycophil broth))
c1ccc2c(c1)-c1nccc3ccnc-2c13 [eupolauridine]	possibly remarkable anticandidal properties											
COc1cnc2c3c(nccc13)C(=O)c1ccccc1-2 [3-Methoxysampangine]		3.12 µg/mL (≈ 11.9 µM)	0.2 µg/mL (≈ 0.763 µM)	3.12 µg/mL (≈ 11.9 µM)	significant antifungal activity; also recorded: remarkable antifungal properties							
COc1cnc2c3c(nccc13)-c1ccccc1C2=O [4-Methoxysampangine]		100 µg/mL (≈ 381 µM)	3.12 µg/mL (≈ 11.9 µM)		significant antifungal activity	3.12 µg/mL (≈ 11.9 µM)	100 µg/mL (≈ 381 µM)	12.5 µg/mL (≈ 47.7 µM)	1.56 µg/mL (≈ 5.95 µM)			
O=C1c2ccccc2-c2nccc3ccnc1c23 [Sampangine]		6.25 µg/mL (≈ 26.9 µM)	< 0.2 µg/mL		significant antifungal activity	0.78 µg/mL (≈ 3.36 µM)	12.5 µg/mL (≈ 53.8 µM)	< 0.2 µg/mL	0.78 µg/mL (≈ 3.36 µM)	1.56 µg/mL (≈ 6.72 µM)	< 0.005 µg/mL	1.56 µg/mL (≈ 6.72 µM)
O=C1c2ccccc2-c2nccc3c2c1nc1ccccc13 [Benzo[4,5]sampangine]		1.56 µg/mL (≈ 5.53 µM)	< 0.2 µg/mL			3.12 µg/mL (≈ 11.1 µM)	50 µg/mL (≈ 177 µM)	1.56 µg/mL (≈ 5.53 µM)	< 0.2 µg/mL			0.39 µg/mL (≈ 1.38 µM)
C[C@@H]1[C@H](O)[C@@H](C)/C=C/C=C/C=C/C=C/C=C/C=C/C=C/[C@H](O[C@@H]2O[C@H](C)[C@@H](O)[C@H](N)[C@@H]2O)C[C@@H]2O[C@](O)(C[C@@H](O)C[C@@H](O)[C@H](O)CC[C@@H](O)C[C@@H](O)CC(=O)O[C@H]1C)C[C@H](O)[C@H]2C(=O)O [Amphotericin B, reference compound]							0.2 µg/mL (≈ 0.216 µM)		0.2 µg/mL (≈ 0.216 µM)			3.12 µg/mL (≈ 3.38 µM)
O=C1c2ccccc2-c2nccc3c(Br)cnc1c23 [4-Bromosampangine]		25 µg/mL (≈ 80.4 µM)	0.39 µg/mL (≈ 1.25 µM)		significant antifungal activity	12.5 µg/mL (≈ 40.2 µM)	25 µg/mL (≈ 80.4 µM)	< 0.2 µg/mL	< 0.2 µg/mL			50 µg/mL (≈ 161 µM)
